Results: ChEMBL document CHEMBL1909046, “DrugMatrix in vitro pharmacology data”
pIC50, pKi: −log10 of the molar value.

Assays:
D(3) dopamine receptor = D(3) dopamine receptor (Homo sapiens, UniProt P35462); assay: DRUGMATRIX: Dopamine D3 radioligand binding (ligand: [3H] Spiperone); assay type: cell membranes, CHO, Membrane; conditions: cho
[1] = target: Sodium-dependent dopamine transporter (Homo sapiens, UniProt Q01959); assay: DRUGMATRIX: Dopamine Transporter radioligand binding (ligand: [125I] RTI-55); assay type: cell membranes, CHO-K1, Membrane; conditions: Not Active = under 50% inhibition at 10 µM; for IC50: cho-k1
Sequence of Sodium-dependent dopamine transporter (Q01959 whole entry): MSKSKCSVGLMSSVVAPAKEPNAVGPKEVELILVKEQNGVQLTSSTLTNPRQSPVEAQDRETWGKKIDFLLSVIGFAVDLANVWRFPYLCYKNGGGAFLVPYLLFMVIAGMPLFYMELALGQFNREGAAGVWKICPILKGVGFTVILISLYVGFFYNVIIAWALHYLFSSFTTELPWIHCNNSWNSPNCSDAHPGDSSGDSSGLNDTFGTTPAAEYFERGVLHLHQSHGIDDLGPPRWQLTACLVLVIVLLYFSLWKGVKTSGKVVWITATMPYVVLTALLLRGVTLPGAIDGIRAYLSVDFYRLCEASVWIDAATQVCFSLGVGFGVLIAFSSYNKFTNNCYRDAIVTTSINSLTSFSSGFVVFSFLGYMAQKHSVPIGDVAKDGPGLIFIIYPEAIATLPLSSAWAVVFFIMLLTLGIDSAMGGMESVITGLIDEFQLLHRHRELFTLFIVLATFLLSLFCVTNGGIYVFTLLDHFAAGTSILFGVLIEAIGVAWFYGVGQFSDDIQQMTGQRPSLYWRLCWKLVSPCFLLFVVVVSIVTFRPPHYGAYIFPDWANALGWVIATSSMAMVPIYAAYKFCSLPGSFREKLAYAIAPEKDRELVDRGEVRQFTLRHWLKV

[2] = target: T1, Muscarinic acetylcholine receptor M4 (Homo sapiens, UniProt P08173); assay type: cell membranes, CHO-K1, Membrane; conditions: for IC50: cho-k1; on all read-outs here: in other assays of this panel Not Active means under 50% inhibition at 10 µM
T1 sequence (P08173 whole entry): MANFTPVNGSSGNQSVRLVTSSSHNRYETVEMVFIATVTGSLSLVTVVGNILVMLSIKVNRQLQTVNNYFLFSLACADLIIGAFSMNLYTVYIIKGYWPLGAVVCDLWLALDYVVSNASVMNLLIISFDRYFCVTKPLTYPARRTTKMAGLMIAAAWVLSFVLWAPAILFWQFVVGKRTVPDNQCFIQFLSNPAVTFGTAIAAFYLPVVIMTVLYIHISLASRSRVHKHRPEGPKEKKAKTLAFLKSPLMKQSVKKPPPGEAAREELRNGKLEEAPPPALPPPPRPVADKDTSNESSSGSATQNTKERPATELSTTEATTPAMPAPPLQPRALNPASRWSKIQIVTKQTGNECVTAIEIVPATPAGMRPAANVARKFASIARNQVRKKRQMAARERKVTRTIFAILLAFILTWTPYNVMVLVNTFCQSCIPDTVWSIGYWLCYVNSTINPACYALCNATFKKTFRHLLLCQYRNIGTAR

Glucocorticoid receptor = target: T2, Glucocorticoid receptor (Homo sapiens, UniProt P04150); conditions: hela s3; further: in other assays of this panel Not Active means under 50% inhibition at 10 µM
T2 sequence (P04150 whole entry): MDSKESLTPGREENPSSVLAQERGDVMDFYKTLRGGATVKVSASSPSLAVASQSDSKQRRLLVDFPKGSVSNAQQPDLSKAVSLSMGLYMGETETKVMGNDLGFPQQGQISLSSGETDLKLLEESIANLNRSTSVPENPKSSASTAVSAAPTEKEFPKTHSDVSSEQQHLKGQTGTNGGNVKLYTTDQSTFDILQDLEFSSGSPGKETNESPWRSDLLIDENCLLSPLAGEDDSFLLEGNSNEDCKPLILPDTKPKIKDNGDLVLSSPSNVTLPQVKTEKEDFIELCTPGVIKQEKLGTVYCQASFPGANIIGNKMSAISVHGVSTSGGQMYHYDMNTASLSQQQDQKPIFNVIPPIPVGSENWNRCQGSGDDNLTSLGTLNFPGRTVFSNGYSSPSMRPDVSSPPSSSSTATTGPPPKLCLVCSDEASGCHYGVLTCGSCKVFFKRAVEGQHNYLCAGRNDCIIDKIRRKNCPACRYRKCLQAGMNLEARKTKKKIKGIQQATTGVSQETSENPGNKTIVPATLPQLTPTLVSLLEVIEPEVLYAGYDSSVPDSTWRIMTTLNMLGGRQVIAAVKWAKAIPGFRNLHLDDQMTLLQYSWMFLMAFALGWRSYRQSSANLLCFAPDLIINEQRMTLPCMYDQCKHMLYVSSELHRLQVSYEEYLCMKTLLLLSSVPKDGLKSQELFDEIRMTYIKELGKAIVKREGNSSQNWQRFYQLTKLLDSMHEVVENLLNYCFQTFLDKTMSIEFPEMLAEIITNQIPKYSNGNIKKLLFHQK

Adenosine receptor A2a = Adenosine receptor A2a (Homo sapiens, UniProt P29274); assay: DRUGMATRIX: Adenosine A2A radioligand binding (ligand: […]); assay type: cell membranes, HEK293, Membrane; conditions: hek293; Not Active = under 50% inhibition at 10 µM
Sequence of Adenosine receptor A2a (P29274 whole entry): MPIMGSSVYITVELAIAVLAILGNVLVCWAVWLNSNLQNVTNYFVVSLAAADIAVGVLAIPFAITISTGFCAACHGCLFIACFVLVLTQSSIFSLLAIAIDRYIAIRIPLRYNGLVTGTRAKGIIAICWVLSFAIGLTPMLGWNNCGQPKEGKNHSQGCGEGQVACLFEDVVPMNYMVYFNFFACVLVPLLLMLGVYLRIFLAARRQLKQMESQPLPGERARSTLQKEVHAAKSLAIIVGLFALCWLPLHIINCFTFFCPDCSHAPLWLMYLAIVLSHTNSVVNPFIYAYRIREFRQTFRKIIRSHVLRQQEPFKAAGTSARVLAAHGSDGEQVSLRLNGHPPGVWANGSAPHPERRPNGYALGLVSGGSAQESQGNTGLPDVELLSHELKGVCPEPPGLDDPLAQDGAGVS

Cytochrome P450 2D6 = Cytochrome P450 2D6 (Homo sapiens, UniProt P10635); conditions: bti-tn-5b1-4; further: in other assays of this panel Not Active means under 50% inhibition at 10 µM
Sequence of Cytochrome P450 2D6 (P10635 whole entry): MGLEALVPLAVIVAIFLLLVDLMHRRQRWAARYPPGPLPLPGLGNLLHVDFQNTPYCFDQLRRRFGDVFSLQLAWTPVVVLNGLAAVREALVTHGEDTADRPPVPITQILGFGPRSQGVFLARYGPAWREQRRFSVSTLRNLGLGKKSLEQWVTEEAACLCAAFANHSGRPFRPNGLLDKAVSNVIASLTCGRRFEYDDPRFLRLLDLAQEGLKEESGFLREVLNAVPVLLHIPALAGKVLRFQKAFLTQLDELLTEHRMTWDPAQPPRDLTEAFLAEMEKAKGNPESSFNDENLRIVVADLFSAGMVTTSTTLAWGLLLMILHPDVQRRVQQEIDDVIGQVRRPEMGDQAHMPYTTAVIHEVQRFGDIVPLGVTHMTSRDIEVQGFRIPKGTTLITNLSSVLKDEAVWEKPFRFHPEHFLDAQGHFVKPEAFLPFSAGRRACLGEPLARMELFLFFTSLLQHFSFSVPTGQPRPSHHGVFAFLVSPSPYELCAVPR

Melanocortin receptor 4 = Melanocortin receptor 4 (Homo sapiens, UniProt P32245); assay type: cell membranes, Membrane; conditions: hek293; further: in other assays of this panel Not Active means under 50% inhibition at 10 µM
Sequence of Melanocortin receptor 4 (P32245 whole entry): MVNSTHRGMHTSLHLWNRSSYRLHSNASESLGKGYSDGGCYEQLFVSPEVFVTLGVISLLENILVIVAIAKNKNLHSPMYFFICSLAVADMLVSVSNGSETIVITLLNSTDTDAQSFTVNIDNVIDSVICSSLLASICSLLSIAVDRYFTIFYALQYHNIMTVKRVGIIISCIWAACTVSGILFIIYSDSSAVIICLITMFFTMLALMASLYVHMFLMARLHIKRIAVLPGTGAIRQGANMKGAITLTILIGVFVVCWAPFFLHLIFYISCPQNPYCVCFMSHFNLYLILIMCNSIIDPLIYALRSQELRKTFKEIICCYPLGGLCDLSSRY

[3] = DRUGMATRIX: Purinergic P2X radioligand binding (ligand: [3H] alpha, beta-Methylene-ATP); assay type: cell membranes, Oryctolagus cuniculus, New Zealand albino, Urinary bladder, Membrane; conditions: Not Active = under 50% inhibition at 10 µM
[4] = target: C-C chemokine receptor type 5 (Homo sapiens, UniProt P51681); assay type: cell membranes, Membrane; conditions: hek293; further: in other assays of this panel Not Active means under 50% inhibition at 10 µM
Sequence of C-C chemokine receptor type 5 (P51681 whole entry): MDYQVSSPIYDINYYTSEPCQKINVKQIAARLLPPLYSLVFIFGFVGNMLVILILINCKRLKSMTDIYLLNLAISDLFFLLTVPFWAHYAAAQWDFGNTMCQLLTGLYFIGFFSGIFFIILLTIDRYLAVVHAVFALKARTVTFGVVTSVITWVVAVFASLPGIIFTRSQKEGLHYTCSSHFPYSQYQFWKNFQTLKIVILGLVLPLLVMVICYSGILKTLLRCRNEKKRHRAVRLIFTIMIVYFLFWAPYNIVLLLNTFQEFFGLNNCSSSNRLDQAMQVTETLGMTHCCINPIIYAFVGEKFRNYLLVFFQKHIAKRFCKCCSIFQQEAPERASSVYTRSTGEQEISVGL

[5] = DRUGMATRIX: Platelet-Derived Growth Factor (PDGF) radioligand binding (ligand: [125I] PDGF); assay type: cell-based; conditions: nih3t3; Not Active = under 50% inhibition at 10 µM
Thromboxane-A synthase = target: T3, Thromboxane-A synthase (Homo sapiens, UniProt P24557); assay: biochemical; assay type: tissue-based, Platelet; conditions: platelet
T3 sequence (P24557 whole entry): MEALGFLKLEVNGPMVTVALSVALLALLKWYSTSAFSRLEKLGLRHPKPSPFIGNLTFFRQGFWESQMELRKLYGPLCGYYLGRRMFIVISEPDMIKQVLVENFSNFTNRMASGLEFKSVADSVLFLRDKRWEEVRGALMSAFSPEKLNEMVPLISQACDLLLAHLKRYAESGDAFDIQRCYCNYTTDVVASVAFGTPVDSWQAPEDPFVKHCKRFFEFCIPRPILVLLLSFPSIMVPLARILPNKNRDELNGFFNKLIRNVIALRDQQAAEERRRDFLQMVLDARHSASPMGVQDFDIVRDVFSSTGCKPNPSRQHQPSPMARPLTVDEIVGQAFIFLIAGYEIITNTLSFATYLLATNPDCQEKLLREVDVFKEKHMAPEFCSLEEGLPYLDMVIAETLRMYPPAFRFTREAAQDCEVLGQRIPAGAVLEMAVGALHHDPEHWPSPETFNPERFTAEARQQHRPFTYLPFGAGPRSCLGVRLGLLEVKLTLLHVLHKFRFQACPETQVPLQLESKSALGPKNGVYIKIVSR

[6] = DRUGMATRIX: Glutamate, AMPA radioligand binding (ligand: [3H] AMPA); assay type: cell membranes, Rattus norvegicus, Wistar, Cerebral cortex, Membrane; conditions: Not Active = under 50% inhibition at 10 µM
[7] = DRUGMATRIX: Sodium/nucleoside co-transporter radioligand binding (ligand: nitrobenzylthioinosine); assay type: cell membranes, Cavia porcellus, Dunkin-Hartley, Cerebral cortex, Membrane; conditions: Not Active = under 50% inhibition at 10 µM

Sequence of D(3) dopamine receptor (P35462 whole entry): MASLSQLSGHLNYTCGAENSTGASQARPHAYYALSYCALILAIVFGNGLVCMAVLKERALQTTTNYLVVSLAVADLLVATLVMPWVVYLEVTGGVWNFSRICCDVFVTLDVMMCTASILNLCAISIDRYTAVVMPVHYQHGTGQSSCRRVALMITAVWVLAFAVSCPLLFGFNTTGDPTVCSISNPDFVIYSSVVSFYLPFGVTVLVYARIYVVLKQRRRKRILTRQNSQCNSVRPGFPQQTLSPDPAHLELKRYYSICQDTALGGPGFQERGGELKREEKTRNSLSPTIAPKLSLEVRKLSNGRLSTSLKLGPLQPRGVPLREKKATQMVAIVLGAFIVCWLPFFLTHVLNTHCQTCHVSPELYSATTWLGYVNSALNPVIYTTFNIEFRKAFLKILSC

SMILES | IC50 (D(3) dopamine receptor) | IC50 [1] | IC50 [2] | IC50 (Glucocorticoid receptor) | IC50 (Adenosine receptor A2a) | IC50 (Cytochrome P450 2D6) | Ki (Cytochrome P450 2D6) | IC50 (Melanocortin receptor 4) | IC50 [3] | Ki [3] | IC50 [4] | IC50 [5] | Ki [5] | IC50 (Thromboxane-A synthase) | IC50 [6] | Ki [6] | IC50 [7] | Ki [7] | further results
CCCSc1ccc2nc(NC(=O)OC)[nH]c2c1 [ALBENDAZOLE] | Not Active | Not Active | Not Active | Not Active | Not Active | Not Active | Not Active | Not Active | Not Active | Not Active | Not Active | Not Active | Not Active | Not Active | Not Active | Not Active | Not Active | Not Active | –
CCCc1cc(=O)[nH]c(=S)[nH]1 [PROPYLTHIOURACIL] | Not Active | Not Active | Not Active | – | Not Active | Not Active | Not Active | Not Active | Not Active | Not Active | Not Active | Not Active | Not Active | Not Active | Not Active | Not Active | Not Active | Not Active | –
O=P1(NCCCl)OCCCN1CCCl (stereo not drawn) [IFOSFAMIDE] | Not Active | Not Active | Not Active | Not Active | Not Active | – | – | Not Active | Not Active | Not Active | Not Active | Not Active | Not Active | Not Active | Not Active | Not Active | Not Active | Not Active | –
O=C1NC(=O)C(c2ccccc2)(c2ccccc2)N1 [PHENYTOIN] | Not Active | Not Active | Not Active | Not Active | Not Active | Not Active | Not Active | Not Active | Not Active | Not Active | Not Active | Not Active | Not Active | Not Active | Not Active | Not Active | Not Active | Not Active | –
COc1ccc(CN(CCN(C)C)c2ccccn2)cc1 [PYRILAMINE] | Not Active | – | Not Active | Not Active | Not Active | – | – | Not Active | Not Active | Not Active | Not Active | Not Active | Not Active | Not Active | Not Active | Not Active | Not Active | Not Active | pIC50 ([1]; read-out: IC50): 6.06; pKi ([1]; read-out: Ki): 6.16
CCc1ccc(C(=O)C(C)CN2CCCCC2)cc1 (stereo not drawn) [EPERISONE] | Not Active | Not Active | Not Active | Not Active | Not Active | – | – | Not Active | Not Active | Not Active | Not Active | Not Active | Not Active | Not Active | Not Active | Not Active | Not Active | Not Active | –
N=C(N)NCCCCNC(=N)N.O=S(=O)(O)O [ARCAINE SULFATE] | Not Active | Not Active | Not Active | – | Not Active | Not Active | Not Active | Not Active | Not Active | Not Active | Not Active | Not Active | Not Active | Not Active | Not Active | Not Active | Not Active | Not Active | –
Fc1ccc([C@@H]2CCNC[C@H]2COc2ccc3c(c2)OCO3)cc1 [PAROXETINE] | Not Active | – | – | Not Active | Not Active | – | – | Not Active | Not Active | Not Active | Not Active | Not Active | Not Active | Not Active | Not Active | Not Active | Not Active | Not Active | pIC50 ([2]; read-out: IC50): 6.61; pKi ([2]; read-out: Ki): 7.47
CNC(=O)Oc1ccc2c(c1)[C@]1(C)CCN(C)[C@@H]1N2C [PHYSOSTIGMINE] | Not Active | Not Active | Not Active | Not Active | Not Active | – | – | Not Active | Not Active | Not Active | Not Active | Not Active | Not Active | Not Active | Not Active | Not Active | Not Active | Not Active | –
CC1COc2c(N3CCN(C)CC3)c(F)cc3c(=O)c(C(=O)O)cn1c23 (stereo not drawn) [OFLOXACIN] | Not Active | Not Active | Not Active | – | Not Active | Not Active | Not Active | Not Active | Not Active | Not Active | Not Active | Not Active | Not Active | Not Active | Not Active | Not Active | Not Active | Not Active | –
